# Test results from US20090264382A1, “Methods for Treating Hematopoietic Neoplasms” (priority 2007, published 2009).
# How the values were obtained:
# [1] = tested on: AML cells / panel of leukemic cell lines; assay: Leukemic cell proliferation, viable cell count by trypan blue exclusion; format: cell-based, human; conditions: 48 hours
# Description: Leukemic cells were seeded at 1×10^5 cells/ml in X-vivo medium (Bio-Whittaker, MA) with 5% FBS and CA4P or pre-incubated with the PARP-inhibitor DPQ or caspase-inhibitors Z-VAD-fmk and Q-VD-OPh (R&D, Minneapolis, Minn.). A panel of leukemic cells was incubated with CA4P at the different concentrations indicated in FIG. 1, and viable cells were counted after 48 hours using trypan blue exclusion. Results of four experiments in duplicate are expressed as the ratio of the percentage of viable cells/control±SEM (*p<0.05 as compared with CA4P-untreated cells; n=4). After incubation for 48 hours, cells were counted using trypan-blue exclusion. CA4P at concentrations as low as 1 nM initiated cell death of non-adherent, anchorage-independent AML cells in vitro, with the IC50 ranging from 2.5 to 5 nM (FIG. 1). The majority of the AML cell lines tested was sensitive to CA4P at a concentration of 2.5 nM or less. All leukemic cell lines, as well as a recently established primary leukemic cell line (R81) 16 were sensitive at low doses of CA4P (<10 nM).
# KG1a leukemic cells = assay: Release of nuclear HMG1 protein into supernatant (necrosis marker), Western blot; format: cell-based, human; conditions: 24 hours, CA4P 20 mM, staurosporine 100 μM as printed
# Description: Nonetheless, to rule out the possibility that CA4P may trigger necrotic cell death in subsets of the leukemic cells, the release of nuclear HMG1 protein into the culture supernatant, which has been described as a sensitive and highly specific marker for necrotic cell death (Scaffidi, et al. 2002. Nature 418, 191-5), was quantified. For detection of HMG1 protein, KG1a leukemic cells (1×106 in 2 ml X-vivo/5% FBS) were incubated with 100 μM staurosporine to induce apoptosis, freeze-thawed three times to induce necrosis, or treated with 20 mM CA4P for 24 hours. Cells were spun down, pelleted and the supernatant subjected to Western blot for HMG135.
# leukemic cells = assay: Release of mitochondrial membrane proteins, immunofluorescence; format: cell-based, human; conditions: after CA4P exposure, data not shown
# Description: Mitochondrial damage may result in the release of pro-apoptotic mitochondrial membrane proteins (MMPs) such as cytochrome c, SMAC/diablo and ARTS. […] Cytochrome c and ARTS were detected using mAb clone 6H2.B4 (1:100, BD Pharmingen) and polyclonal-antibody A3720 (1:50, Sigma), both followed by AlexaFluor 488 conjugated secondary antibody (1:200, Molecular Probes) and analyzed by confocal microscopy.
# HL60 subcutaneous tumors = assay: Subcutaneous in vivo leukemia model; design: species or system NOD-SCID mice
# Description: HL60 (5×10^6 cells) were injected subcutaneously into the dorsa of seven-week-old NOD-SCID mice (Jackson Laboratory). When mice bore a tumor (i.e. after 12 days), 4 experimental groups were randomized, each with 9 animals. Daily treatment was initiated at this time: the CA4P groups were subjected to intraperitoneal injection of CA4P at 10, 25 and 50 mg/kg body weight, and the control group received PBS. After a 3-day treatment, animals were sacrificed, tumors removed and then subjected to immunohistochemical analysis. Tumors were embedded in paraffin, serially sectioned, and stained with hematoxylin and eosin for histological analysis. Cell death was assessed by TUNEL assay. Cell death within paraffin-embedded tumor sections was detected by TUNEL reaction (Roche Diagnostics). The detection of cell death in this assay relies on the detection of free 3′OH DNA ends.
# Tumors from mice treated with CA4P for 3 days were softer and hemorrhagic (particularly when treated with 50 mg/kg) than those observed in the control group. […] The control tumor sections were negative for TUNEL reaction. […] The extent of intra-tumor vascularization within the different groups was assessed by immunostaining for the endothelial-specific antigen MECA-32. […] The neo-vessel density was evaluated by microscopic counting of 5 fields at 10× magnification, and presented as mean number of microvessels per microscopic field±SEM (*p<0.05 as compared with the PBS control group; n=5). The decrease in intra-tumor vascularization induced by CA4P was dose dependent (54±13%, 68±6% and 90±3% decrease for 10, 25 and 50 mg/kg, respectively).
# GFP-labeled U937 cells = assay: Systemic in vivo leukemia model, GFP+U937; design: species or system NOD-SCID mice; conditions: after 30 days, data not shown
# Description: NOD-SCID mice were intravenously inoculated with 1×10^7 GFP+HL60 cells. The HL60 cells were labeled with green fluorescent protein (GFP) by a lentiviral construct, and inoculated systemically through tail vein injection. Three days after inoculation, mice were divided into 2 groups of five mice. One group was treated every other day with PBS (control) and the second group received 25 mg/kg CA4P every other day. Each experiment was done three times. At day 30 after the start of the experiment, two mice from each group were killed, and their organs (spleen, liver and lung), peripheral blood and marrow of surgically removed femurs were collected, and analyzed for the presence of human leukemic cells by flow cytometry. Single cell suspension was stained using phytoerythrin-labeled anti-human CD45 mAb (Pharmingen), and the percentage of double positive human CD45-PE and GFP cells was determined flow cytometer. The extent of GFP+HL60 cell infiltration was assessed by fluorescence microscopy. In a second set of experiments, GFP+U937 cells were used instead of HL60 cells, and the animals sacrificed after 30 days. […]
# VCAM-1 = assay: IL-1β-induced VCAM-1 expression in HUVECs, flow cytometry; format: cell-based, human; conditions: 1 to 5 nM
# Description: Human umbilical vein endothelial cells (HUVECs) were activated with IL-1β (5 ng/ml) for 24 hours with CA4P added at concentrations from 0 to 5 nM. VCAM-1 expression was determined by flow cytometry with phytoerythrin-conjugated anti-CD106 (VCAM-1) mAb.
# [2] = tested on: human umbilical cord derived (CB) CD34+ cells; assay: Cord blood CD34+ cell viability and colony formation; format: cell-based
# Description: Cord blood CD34+ cells were isolated by magnetic procedure and cultured with recombinant human SCF (50 ng/ml, Peprotech) and CA4P for 48 h. Annexin/PI staining was then performed. CD34+ cells were also cultured in methylcellulose supplemented with cytokines and CA4P (Stem cell technologies, Vancouver, Canada) for 14 days. Colonies were scored. […] As such, CA4P used as single agent can selectively target circulating and or tissue-resident hematopoietic neoplasms without incurring significant hematological toxicity.
structure (smiles),measurement,setting,value
"COc1ccc(/C=C\c2cc(OC)c(OC)c(OC)c2)cc1OP(=O)(O)O [CA4P, combretastatin A-4 phosphate]",concentration at which all leukemic cell lines and primary line R81 were sensitive,[1],< 10 nM
same,concentration at which the majority of the AML cell lines tested was sensitive,[1],≤ 2.5 nM
same,lowest concentration that initiated cell death of AML cells,[1]; in vitro,1 nM
same,IC50,"[1]; Homo sapiens, trypan blue exclusion, range over cell lines, read-out: IC50, cell death of non-adherent, anchorage-independent AML cells",2.5 to 5 nM
same,release of nuclear HMG1 protein into the supernatant,KG1a leukemic cells,not
same,mitochondrial membrane protein release,leukemic cells,release of cytochrome c and ARTS from mitochondria
same,decrease in intra-tumor vascularization (MECA-32 microvessel density),"HL60 subcutaneous tumors; 10 mg/kg i.p. daily, 3 days",54±13%
same,decrease in intra-tumor vascularization (MECA-32 microvessel density),"HL60 subcutaneous tumors; 25 mg/kg i.p. daily, 3 days",68±6%
same,decrease in intra-tumor vascularization (MECA-32 microvessel density),"HL60 subcutaneous tumors; 50 mg/kg i.p. daily, 3 days",90±3%
same,tumor histology,"HL60 subcutaneous tumors; 10, 25 and 50 mg/kg, 3 days",largely necrotic
same,cell death in tumor sections (TUNEL),"HL60 subcutaneous tumors; low to high doses, data not shown",most of the leukemic cells were non-viable
same,GFP-positive U937 leukemic cells in the bone marrow,GFP-labeled U937 cells,less than 0.05%
same,GFP-positive U937 leukemic cells in the liver,GFP-labeled U937 cells,less than 0.05%
same,apoptosis of HUVECs,VCAM-1,without inducing apoptosis
same,VCAM-1 expression on IL-1β-activated HUVECs,"VCAM-1; 24 hours, IL-1β 5 ng/ml",significantly reduced expression of VCAM-1
same,CD34+ cell viability (Annexin/PI staining),[2]; 48 h with SCF 50 ng/ml,only minimal effect on cell viability
same,colony-forming potential of CD34+ cells,"[2]; methylcellulose, 14 days",did not impair colony-forming potential
